According to patent US7592451B2, “Treatment for diabetes and obesity as well as method of screening compounds useful for such treatments” (New York University, priority 2005, dated 2009):

Key:
[1] = test system: Daf-2 mutant C. elegans strain e1370; test: Dauer formation screen in Daf-2 mutant C. elegans; type: in vivo; conditions: L2 stage worms soaked in 100 μM compound, warmed to 25° C.
Experimental: The Daf-2 mutant C. elegans strain e1370 was grown on nematode growth media (NGM) agar plates with E. coli (OP50) under standard conditions at 16° C. C. elegans mutant strains were obtained from the Caenorhabditis Genetics Center. Twenty synchronized early L2 animals grown at 16° C. were soaked in 96-well plates containing 100 μM of compounds/2% OP50 culture/M9 buffer, and then incubated at 25° C. for 4 days.
TG-Bz library (1120 members) compounds were screened in L2 stage worms grown at 16° C. by soaking in a 100 μM chemical solution and were warmed up to 25° C., in which 100% of untreated Daf-2 mutant larvae enter dauer within 24 hours. […] E3 is the TGBz control compound (FIG. 2C).

[2] = biological target: T1, rabbit muscle GAPDH (Oryctolagus cuniculus, UniProt P46406); test: In vitro GAPDH inhibition assay (NADH fluorescence); type: biochemical; conditions: 0.2 mM GAP, 0.1 mM NAD+, pH 8.6; read-out: IC50 against GAPDH
T1 construct: host or cells: rabbit muscle
Experimental: Rabbit muscle GAPDH and glyceraldehydes-3-phosphate (GAP) were employed. The assay was performed in black polypropylene 96-well micro-titer plates using a 100 μl solution of 100 mM sodium phosphate at pH 8.6, 5 mM EDTA, 0.2 mM GAP, 0.1 mM NAD^+, 0.5 units of GAPDH in the presence of varying concentrations of compound. The reaction was initiated by addition of GAP. Amounts of produced NADH was monitored by a fluorescence plate reader, at λex=340 nm, λem=460 nm (ex=excitation, em=emission wave length) (FIG. 7).

[3] = test system: 3T3-L1 pre-adipocytes; test: Glucose uptake (2-NBDG) by 3T3-L1 pre-adipocytes; type: cell-based
Experimental: To validate the relevance of this C. elegans data to a mammalian system, F43 was tested for glucose uptake in 3T3-L1 pre-adipocytes using a fluorescent derivative of glucose, 2-NBD-deoxyglucose (Moon et al., “A Novel Microtubule Destabilizing Entity from Orthogonal Synthesis of Triazine Library and Zebrafish Embryo Screening,” J. Am. Chem. Soc. 124:11608-11609 (2002), which is hereby incorporated by reference in its entirety).
3T3-L1 pre-adipocytes, were grown in DMEM (Dulbecco's Modified Eagle Medium Media) containing 1% antibiotics, and 10% heat-inactivated newborn calf serum under a humidified 5% CO2 atmosphere. The cells were seeded in 48-well plates and allowed to adhere to the dish overnight. Cultures at 70-80% confluence were used for the chemical exposures. […] Fluorescence intensity was measured in a fluorescence micro-plate reader at λex=466 nm and λem=540 nm.
FIGS. 3A-B show the up-regulation of glucose uptake by 3T3-L1 pre-adipocytes upon treatment with Insulin, the TGBz compound F43, and the TGBz compound E3 as a control. […] Following incubation with the dye for 15 min. at 37° C., cells were washed with ice-cold PBS, and the fluorescence intensity was measured. The uptake of the fluorescent 2-NBDG was visualized by a Leica 2000 fluorescence microscope with excitation at 488 nm and long-pass detection at 530 nm and measured by a fluorescence microplate reader. […]

T1 sequence (P46406 2-333 limits assumed): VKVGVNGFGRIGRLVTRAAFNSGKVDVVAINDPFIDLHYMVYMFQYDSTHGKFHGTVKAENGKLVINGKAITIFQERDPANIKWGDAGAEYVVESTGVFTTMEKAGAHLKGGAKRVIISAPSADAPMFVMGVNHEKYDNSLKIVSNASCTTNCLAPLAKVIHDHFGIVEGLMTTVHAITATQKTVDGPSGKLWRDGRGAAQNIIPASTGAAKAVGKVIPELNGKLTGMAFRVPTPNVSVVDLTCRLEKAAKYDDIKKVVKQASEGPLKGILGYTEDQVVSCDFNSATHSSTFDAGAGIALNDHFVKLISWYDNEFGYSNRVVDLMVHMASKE

O=C(NCCOCCOCCNc1nc(NCCc2ccc(O)c(O)c2)nc(Nc2ccccc2)n1)c1ccccc1 [F43]
effect on dauer formation [1]: inhibits dauer formation | IC50 [2]: 4 µM | glucose uptake (2-NBDG fluorescence) ([3]; 15 min incubation, 100 μM 2-NBDG, compound up to 10 μM): dose dependent glucose uptake was observed | glucose uptake on co-treatment with insulin ([3]; co-treatment with insulin (100 nM), 15 min): synergistic effect
